Molecules are shown by their SMILES.

Settings in one data set: not given
What is called melting point is the temperature, or range, at which the solid turns liquid. Consider `CC(C)C1=CC2=CC[C@@H]3[C@](C)(CCC[C@@]3(C)C(=O)O)[C@H]2CC1`, for which the melting point worked out at 174 °C and the ready biodegradability entry is listed as “not readily biodegradable”.
By boiling point is commonly meant the temperature of boiling at a given pressure. Turning to `CC(=O)Oc1cc(C)ccc1C(C)C`, the boiling point was 245 °C.
Consider `ClC1(Cl)C2(Cl)C3(Cl)C4(Cl)C(Cl)(Cl)C5(Cl)C3(Cl)C1(Cl)C5(Cl)C24Cl` (stereo not drawn), for which the log10 Henry constant (atm·m³/mol) was -3.09, the log10 Koc (L/kg) stood at 6 and the log10 vapour pressure (mmHg) was -6.1.
Consider `CCC(C)CC(O)CC` (stereo not drawn), for which the boiling point worked out at 172 °C and the melting point is -91.2 °C.
In turn, `CN1Cc2c(ccc3c2OCO3)[C@@H]2[C@H]1c1cc3c(cc1C[C@@H]2O)OCO3` came in with a melting point of 136 °C.
With `CC1C=CCC2C(=O)OC(=O)C12` (stereo not drawn), the ready biodegradability entry is “not readily biodegradable”.
As for `CC(C)[C@H]1CC[C@H](C)C[C@@H]1OCC(=O)O`, the melting point amounted to 54 °C.
Take `CCC(C#N)CC#N` (stereo not drawn): the boiling point is 264 °C, the log10 vapour pressure (mmHg) was -1.72 and the melting point was -41 °C.
For the compound `CCCCCCCCCC(=O)O`, the boiling point came out at 269 °C, the log10 vapour pressure (mmHg) is -3.44, the melting point is 31.9 °C and the ready biodegradability entry is given as “readily biodegradable”.
For the compound `CCOC(=O)C=C(C)C`, the boiling point was determined as 154 °C.
Turning to `CC1CCCC(C)(C)C1` (stereo not drawn), the boiling point was 137 °C, the log10 vapour pressure (mmHg) worked out at 1.03 and the melting point was -65.7 °C.
Turning to `OCC#CCO`, the boiling point was determined as 238 °C, the log10 vapour pressure (mmHg) is -3.25 and the melting point was 50 °C.
Compound `Clc1cncc(Cl)n1` returned a melting point of 56.5 °C.
In turn, `O=C(O)CNC(CO)(CO)CO` registered a melting point of 187 °C.
The compound `Clc1ccc(Cl)c(I)c1` returned a boiling point of 253 °C and a melting point of 22 °C.
Regarding `NC(=O)Nc1ccc(F)cc1`, the log10 Koc (L/kg) was determined as 1.52.
`CC1(C)O[C@@H]2C[C@H]3[C@@H]4CCC5=CC(=O)C=C[C@]5(C)[C@@]4(F)[C@@H](O)C[C@]3(C)[C@]2(C(=O)CO)O1`: the melting point turned out to be 293 °C.
In turn, `Cc1c(COC(=O)[C@@H]2[C@H](/C=C(\Cl)C(F)(F)F)C2(C)C)cccc1-c1ccccc1` (racemic) displayed a log10 Koc (L/kg) of 5.35, a log10 vapour pressure (mmHg) of -6.74 and a melting point of 69 °C.
In turn, `CCCCC(=O)O[C@]1(C(=O)CO)[C@@H](C)C[C@H]2[C@@H]3CCC4=CC(=O)C=C[C@]4(C)[C@@]3(F)[C@@H](O)C[C@@]21C` gave a melting point of 184 °C.
In turn, `C=CC1CN2CCC1CC2C(=O)c1ccnc2ccc(OC)cc12` (stereo not drawn) showed a melting point of 108 °C.
Regarding `C=Cc1ccc(CCl)cc1`, the ready biodegradability entry is given as “not readily biodegradable”.
On to `O=C(O)Cc1ccc(F)cc1`, for which the melting point was 86 °C.
Same read-out and setting: the same measure for `COc1ccc2c3c1O[C@H]1[C@@H](O)CC=C4[C@@H](C2)N(C)CC[C@]431`: 128 °C.
Take `O=C(O)c1ccc(Cl)c(Cl)c1`: the ready biodegradability entry is reported as “not readily biodegradable”.
The same measure, in the same setting: to `Oc1ccccc1Cc1ccccc1O` belongs “not readily biodegradable”.
Turning to `CCOC(=O)C(C(=O)OCC)C(=O)OCC`, the boiling point turned out to be 253 °C and the melting point was found to be 29 °C.
For the compound `COc1ccc(C(=O)c2ccccc2O)c(O)c1`, the melting point was 68 °C.
The compound `CCCCOC(=O)C(C)CC` (stereo not drawn) registered a boiling point of 179 °C.
In turn, `CCCCC(CC)C(=O)O` (stereo not drawn) had a boiling point of 228 °C and a log10 vapour pressure (mmHg) of -1.52.
Consider `c1cncc(-c2ccnc(-c3cccnc3)c2)c1`, for which the melting point was determined as 148 °C.
Same read-out and setting: to `O=C(O)c1cc(I)ccc1O` belongs 190 °C.
Compound `C=CCN(CC=C)C(=O)C(Cl)Cl` displayed a log10 Koc (L/kg) of 1.6, a log10 vapour pressure (mmHg) of -2.22 and a melting point of 5.5 °C.
Consider `OCC(F)(F)C(F)(F)F`, for which the boiling point turned out to be 82 °C, the log10 Henry constant (atm·m³/mol) is -4.65 and the log10 vapour pressure (mmHg) was 1.66.
The compound `CCN(Cc1ccc(Cl)nc1)C(=C[N+](=O)[O-])NC` returned a melting point of 82.8 °C.
As for `CC(CO)CO`, the boiling point was 195 °C, the log10 vapour pressure (mmHg) is -1.68 and the melting point was -91 °C.
On to `CC(C)OC(=O)C(Cl)Cl`, for which the boiling point worked out at 164 °C.
With `CCc1ccncc1`, the boiling point worked out at 168 °C, the log10 Henry constant (atm·m³/mol) is -5.07, the log10 vapour pressure (mmHg) stood at 0.355 and the melting point was -90.5 °C.
In the case of `FC(F)=C(F)C(F)=C(F)F`, the boiling point turned out to be 6 °C and the melting point was -132 °C.
For the compound `CCN(CC)c1ccc(C(=O)c2ccccc2C(=O)O)c(O)c1`, the ready biodegradability result is on record as “not readily biodegradable”.
As to `NC(=O)CCl`, the boiling point was found to be 225 °C and the melting point came to 121 °C.
`C=CCCC(C)C` displayed a boiling point of 85.3 °C.
`CCCCNCC(=O)Nc1c(C)cccc1Cl` returned a melting point of 45.5 °C.
The compound `FC1(F)C(F)(F)C(F)(F)C2(F)C(F)(C1(F)F)C(F)(F)C(F)(F)C1(F)C(F)(F)C(F)(F)C(F)(F)C(F)(F)C12F` (stereo not drawn) registered a boiling point of 210 °C and a melting point of -20 °C.
Turning to `CC(Cc1ccc(C(C)(C)C)cc1)CN1C[C@@H](C)O[C@@H](C)C1` (single isomer, unassigned), the log10 vapour pressure (mmHg) was -4.59.
Regarding `O=C(c1ccccc1)C(Cl)c1ccccc1` (stereo not drawn), the melting point is 68.5 °C.
Regarding `OCc1ccc(Cl)cc1Cl`, the melting point came out at 59.5 °C and the ready biodegradability result is “readily biodegradable”.
For the compound `C[N+](C)(C)c1ccccc1.[I-]`, the melting point was 224 °C.
On to `NC(=O)c1ccccc1[N+](=O)[O-]`, for which the boiling point turned out to be 317 °C, the log10 Koc (L/kg) turned out to be 1.45 and the melting point turned out to be 177 °C.
The compound `CCOC(=O)c1ccc2ccccc2c1` displayed a boiling point of 308 °C and a melting point of 32 °C.
The compound `Cc1ccc(Br)s1` had a boiling point of 178 °C.
On the same count and under the same terms, the same measure for `CC1=CC(=O)[C@H]2C[C@@H]1C2(C)C`: 228 °C.
In turn, `CCN(CC)c1ccc(/N=N/c2ccccc2)cc1` displayed a log10 vapour pressure (mmHg) of -7.07 and a melting point of 97.5 °C.
With `CCC(OC(N)=O)C1CCCCC1` (stereo not drawn), the melting point was found to be 128 °C.
`CC(C)C12CCC(C)(CC1)O2` came in with a boiling point of 174 °C, a log10 vapour pressure (mmHg) of 0.286 and a melting point of 1 °C.
`CCOC(=O)C1CCCC1=O` (stereo not drawn) yielded a boiling point of 221 °C.
The compound `Nc1ccccc1C=O` returned a melting point of 39 °C.
In the case of `OCC(Br)CBr` (stereo not drawn), the log10 vapour pressure (mmHg) was -1.04.
For the compound `COc1cc2ccc(=O)oc2c(O)c1O`, the melting point came to 231 °C.
For `C[C@H](O)CC[C@H](C)O`, the boiling point was 218 °C and the melting point was 43 °C.
In turn, `COc1ccc(C)cc1` came in with a boiling point of 176 °C and a melting point of -32 °C.
Take `C[C@]12CC[C@H]3[C@@H](CCC4=CC(=O)CC[C@@]43C)[C@@H]1CC[C@@H]2O`: the melting point came out at 155 °C.
The same measure, in the same setting: to `O=C(Cl)c1ccc(F)cc1` belongs 9 °C.
As for `COc1ccc(N=C=S)cc1`, the boiling point is 280 °C and the melting point came out at 18 °C.
As to `NCCCCCCCN`, the boiling point came to 224 °C and the melting point turned out to be 28.9 °C.
In the case of `COc1ccccc1C(=O)c1ccccc1`, the melting point was found to be 41 °C.
For the compound `O=Cc1cc(Cl)cc(Cl)c1`, the boiling point stood at 240 °C and the melting point turned out to be 65 °C.
With `CCCCCCCCCCCCCCCCCCl`, the log10 vapour pressure (mmHg) was -4.34.

The same data set, now with this note: fish.
Turning to `CC(C)C1=CC2=CC[C@@H]3[C@](C)(CCC[C@@]3(C)C(=O)O)[C@H]2CC1`, the log10 BCF is 1.97.
As for `ClC1(Cl)C2(Cl)C3(Cl)C4(Cl)C(Cl)(Cl)C5(Cl)C3(Cl)C1(Cl)C5(Cl)C24Cl` (stereo not drawn), the log10 BCF turned out to be 4.31 and the log10 biotransformation half-life (days) stood at 1.8.
As to `O=C(O)c1ccc(Cl)c(Cl)c1`, the log10 BCF came to 0.36.
